# From the supplement of paper PMC10307832
# What was measured:
# Assay in all cases: relative viability (nuclei count vs DMSO), 5 days (fraction); higher = more cells survive
# NCI-H1915 = test system: NCI-H1915
# Summary of the method: (§1)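 Lung cancer cell lines in 1536-well plates got either a single drug or a fixed anchor-drug dose together with five library-drug doses (not always all listed) in √10 steps, by pin tool, on the day after seeding. Nuclei were counted after 5 days, and relative viability is the treated-to-vehicle ratio of nuclei counts. Values are medians of duplicate plates.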
# NCI-H1734 = test system: NCI-H1734
# Summary of the method: as §1
# NCI-H661 = test system: NCI-H661
# Summary of the method: as §1
# HCC-44 = test system: HCC-44
# Summary of the method: as §1
# EKVX = test system: EKVX
# Summary of the method: as §1
# HOP-62 = test system: HOP-62
# Summary of the method: as §1
# NCI-H2087 = test system: NCI-H2087
# Summary of the method: as §1
# LOU-NH91 = test system: LOU-NH91
# Summary of the method: as §1
# SK-MES-1 = test system: SK-MES-1
# Summary of the method: as §1
# NCI-H358 = test system: NCI-H358
# Summary of the method: as §1
# ChaGo-K-1 = test system: ChaGo-K-1
# Summary of the method: as §1
# HCC-78 = test system: HCC-78
# Summary of the method: as §1
# HCC-366 = test system: HCC-366
# Summary of the method: as §1
# EPLC-272H = test system: EPLC-272H
# Summary of the method: as §1
# NCI-H2023 = test system: NCI-H2023
# Summary of the method: as §1
# NCI-H1650 = test system: NCI-H1650
# Summary of the method: as §1
# NCI-H3122 = test system: NCI-H3122
# Summary of the method: as §1
# NCI-H1395 = test system: NCI-H1395
# Summary of the method: as §1
# COR-L23 = test system: COR-L23
# Summary of the method: as §1
# NCI-H650 = test system: NCI-H650
# Summary of the method: as §1
# A-427 = test system: A-427
# Summary of the method: as §1
# NCI-H596 = test system: NCI-H596
# Summary of the method: as §1
# NCI-H838 = test system: NCI-H838
# Summary of the method: as §1
smiles,measurement,setting,value
O=c1[nH]c2ccccc2n1C1CCN(CCCC(c2ccc(F)cc2)c2ccc(F)cc2)CC1 [Pimozide] + CS(=O)(=O)N1CCN(Cc2cc3nc(-c4cccc5[nH]ncc45)nc(N4CCOCC4)c3s2)CC1 [Pictilisib] (partner 1 µM),relative viability,NCI-H1915; first compound 0.08 µM,0.972
same,relative viability,NCI-H1915; first compound 0.253 µM,0.892
same,relative viability,NCI-H1915; first compound 0.8 µM,0.524
same,relative viability,NCI-H1915; first compound 2.53 µM,0.889
same,relative viability,NCI-H1915; first compound 8 µM,0.796
same,relative viability,NCI-H1734; first compound 0.08 µM,0.45
same,relative viability,NCI-H1734; first compound 0.253 µM,0.444
same,relative viability,NCI-H1734; first compound 0.8 µM,0.489
same,relative viability,NCI-H1734; first compound 2.53 µM,0.411
same,relative viability,NCI-H1734; first compound 8 µM,0.46
same,relative viability,NCI-H661; first compound 0.08 µM,0.447
same,relative viability,NCI-H661; first compound 0.253 µM,0.337
same,relative viability,NCI-H661; first compound 0.8 µM,0.454
same,relative viability,NCI-H661; first compound 2.53 µM,0.381
same,relative viability,NCI-H661; first compound 8 µM,0.408
same,relative viability,HCC-44; first compound 0.08 µM,0.58
same,relative viability,HCC-44; first compound 0.253 µM,0.695
same,relative viability,HCC-44; first compound 0.8 µM,0.565
same,relative viability,HCC-44; first compound 2.53 µM,0.576
same,relative viability,HCC-44; first compound 8 µM,0.558
same,relative viability,EKVX; first compound 0.253 µM,0.349
same,relative viability,EKVX; first compound 0.8 µM,0.431
same,relative viability,EKVX; first compound 2.53 µM,0.409
same,relative viability,EKVX; first compound 8 µM,0.401
same,relative viability,HOP-62; first compound 0.08 µM,0.687
same,relative viability,HOP-62; first compound 0.253 µM,0.694
same,relative viability,HOP-62; first compound 2.53 µM,0.687
same,relative viability,HOP-62; first compound 8 µM,0.635
same,relative viability,NCI-H2087; first compound 0.08 µM,0.9
same,relative viability,NCI-H2087; first compound 0.253 µM,0.994
same,relative viability,NCI-H2087; first compound 0.8 µM,0.824
same,relative viability,NCI-H2087; first compound 2.53 µM,0.784
same,relative viability,NCI-H2087; first compound 8 µM,0.62
same,relative viability,LOU-NH91; first compound 0.08 µM,0.476
same,relative viability,LOU-NH91; first compound 0.253 µM,0.489
same,relative viability,LOU-NH91; first compound 0.8 µM,0.521
same,relative viability,LOU-NH91; first compound 2.53 µM,0.546
same,relative viability,LOU-NH91; first compound 8 µM,0.509
same,relative viability,SK-MES-1; first compound 0.08 µM,0.305
same,relative viability,SK-MES-1; first compound 0.253 µM,0.308
same,relative viability,SK-MES-1; first compound 0.8 µM,0.36
same,relative viability,SK-MES-1; first compound 2.53 µM,0.38
same,relative viability,SK-MES-1; first compound 8 µM,0.341
same,relative viability,NCI-H358; first compound 0.08 µM,0.292
same,relative viability,NCI-H358; first compound 0.253 µM,0.324
same,relative viability,NCI-H358; first compound 0.8 µM,0.384
same,relative viability,NCI-H358; first compound 2.53 µM,0.356
same,relative viability,NCI-H358; first compound 8 µM,0.396
same,relative viability,ChaGo-K-1; first compound 0.08 µM,0.636
same,relative viability,ChaGo-K-1; first compound 0.253 µM,0.614
same,relative viability,ChaGo-K-1; first compound 0.8 µM,0.694
same,relative viability,ChaGo-K-1; first compound 2.53 µM,0.762
same,relative viability,ChaGo-K-1; first compound 8 µM,0.569
same,relative viability,HCC-78; first compound 0.08 µM,0.214
same,relative viability,HCC-78; first compound 0.253 µM,0.244
same,relative viability,HCC-78; first compound 0.8 µM,0.187
same,relative viability,HCC-78; first compound 2.53 µM,0.19
same,relative viability,HCC-78; first compound 8 µM,0.202
same,relative viability,HCC-366; first compound 0.08 µM,0.164
same,relative viability,HCC-366; first compound 0.253 µM,0.154
same,relative viability,HCC-366; first compound 0.8 µM,0.165
same,relative viability,HCC-366; first compound 2.53 µM,0.0834
same,relative viability,HCC-366; first compound 8 µM,0.118
same,relative viability,EPLC-272H; first compound 0.08 µM,0.302
same,relative viability,EPLC-272H; first compound 0.253 µM,0.269
same,relative viability,EPLC-272H; first compound 0.8 µM,0.273
same,relative viability,EPLC-272H; first compound 2.53 µM,0.258
same,relative viability,EPLC-272H; first compound 8 µM,0.238
same,relative viability,NCI-H2023; first compound 0.08 µM,0.214
same,relative viability,NCI-H2023; first compound 0.253 µM,0.24
same,relative viability,NCI-H2023; first compound 0.8 µM,0.212
same,relative viability,NCI-H2023; first compound 2.53 µM,0.223
same,relative viability,NCI-H2023; first compound 8 µM,0.202
same,relative viability,NCI-H1650; first compound 0.08 µM,0.589
same,relative viability,NCI-H1650; first compound 0.253 µM,0.489
same,relative viability,NCI-H1650; first compound 0.8 µM,0.461
same,relative viability,NCI-H1650; first compound 2.53 µM,0.547
same,relative viability,NCI-H1650; first compound 8 µM,0.182
same,relative viability,NCI-H3122; first compound 0.08 µM,0.523
same,relative viability,NCI-H3122; first compound 0.253 µM,0.588
same,relative viability,NCI-H3122; first compound 0.8 µM,0.514
same,relative viability,NCI-H3122; first compound 2.53 µM,0.594
same,relative viability,NCI-H3122; first compound 8 µM,0.573
same,relative viability,NCI-H1395; first compound 0.08 µM,0.647
same,relative viability,NCI-H1395; first compound 0.253 µM,0.598
same,relative viability,NCI-H1395; first compound 0.8 µM,0.634
same,relative viability,NCI-H1395; first compound 2.53 µM,0.679
same,relative viability,NCI-H1395; first compound 8 µM,0.681
same,relative viability,COR-L23; first compound 0.08 µM,0.705
same,relative viability,COR-L23; first compound 0.253 µM,0.75
same,relative viability,COR-L23; first compound 0.8 µM,0.638
same,relative viability,COR-L23; first compound 2.53 µM,0.702
same,relative viability,COR-L23; first compound 8 µM,0.632
same,relative viability,NCI-H650; first compound 0.08 µM,0.851
same,relative viability,NCI-H650; first compound 0.253 µM,0.852
same,relative viability,NCI-H650; first compound 0.8 µM,0.878
same,relative viability,NCI-H650; first compound 2.53 µM,0.92
same,relative viability,NCI-H650; first compound 8 µM,1.09
same,relative viability,A-427; first compound 0.08 µM,0.723
same,relative viability,A-427; first compound 0.253 µM,0.729
same,relative viability,A-427; first compound 0.8 µM,0.538
same,relative viability,A-427; first compound 2.53 µM,0.68
same,relative viability,A-427; first compound 8 µM,0.668
same,relative viability,NCI-H596; first compound 0.08 µM,0.414
same,relative viability,NCI-H596; first compound 0.253 µM,0.488
same,relative viability,NCI-H596; first compound 0.8 µM,0.251
same,relative viability,NCI-H596; first compound 2.53 µM,0.356
same,relative viability,NCI-H596; first compound 8 µM,0.344
same,relative viability,NCI-H838; first compound 0.08 µM,0.484
same,relative viability,NCI-H838; first compound 0.253 µM,0.454
same,relative viability,NCI-H838; first compound 0.8 µM,0.444
same,relative viability,NCI-H838; first compound 2.53 µM,0.447
same,relative viability,NCI-H838; first compound 8 µM,0.427
